# Measured values as given in patent US4348393A, “N-Aryl oxazolidinones, oxazolidinethiones, pyrrolidinones, pyrrolidines and thiazolidinones” (Delalande S.A., priority 1978, dated 1982).
# Like-named read-outs stand apart in the source and are kept apart here.
# Tests used:
# [1] = test system: ptosis observed one hour after reserpine; test: Test B: antagonism of reserpine-induced ptosis in mice; type: in vivo; conditions: Mus musculus, 1 h, po, antagonism of ptosis one hour after reserpine 2 mg/kg intravenous, read-out: Test B ED 50
# Method: Test B: Antagonism with respect to the ptosis observed one hour after an intravenous injection (2 mg/kg) of reserpine given to mice, following the protocol described by C.
# [2] = test system: generalized trembling caused by dl-5-hydroxytryptophane; test: Test A: potentiation in mice of generalized trembling caused by dl-5-hydroxytryptophane; type: in vivo; conditions: Mus musculus, po, read-out: Test A ED 50
# Method: Test A: Potentiation in mice of generalized trembling caused by an interperitoneal injection (200 mg/kg) of dl-5-hydroxytryptophane, following the protocol described by C. GOURET and G. RAYNAUD in J. Pharmacol. (Paris), (1974), 5, 231.
# Toxicity LD50 mouse = conditions: in vivo, po, read-out: Toxicity LD 50
# [3] = mice, potentiation of trembling by dl-5-hydroxytryptophane 200 mg/kg interperitoneal
SMILES,ED50 [1] [mg/kg],"ED50 [2, 3] [mg/kg]",LD50 (Toxicity LD50 mouse) [mg/kg],ED50 [2] [mg/kg]
COCC1CN(c2ccc(CCc3ccccc3)cc2)C(=O)O1 (centres unmarked) [compound 192],6,5.8,> 1000,
NCC1CN(c2ccc(OCc3cc(Cl)cc([N+](=O)[O-])c3)cc2)C(=O)O1 (centres unmarked) [compound 207],7.6,9.1,> 1000,
CNCC1CN(c2ccc(OCc3cccc([N+](=O)[O-])c3)cc2)C(=O)O1 (centres unmarked) [compound 85],2,3,1000,
COCC1CN(c2ccc(OCc3ccc([N+](=O)[O-])c(Cl)c3)cc2)C(=O)O1 (centres unmarked) [compound 168],16,25,> 1000,
COCC1CN(c2ccc(OCC3CCCC3)cc2)C(=S)O1 (centres unmarked) [compound 211],1.2,2,1000,
COCC1CN(c2ccc(-c3ccccc3)cc2)C(=O)O1 (centres unmarked) [compound 195],2.2,1.2,> 1000,
COCC1CN(c2ccc(OCc3cc(C#N)cc([N+](=O)[O-])c3)cc2)C(=O)O1 (centres unmarked) [compound 161],0.36,1.1,> 2000,
COCC1CN(c2ccc(N(C)C)cc2)C(=O)O1 (centres unmarked) [compound 180],7.8,7.4,1000,
COCC1CN(c2ccc(OCc3cccnc3)cc2)C(=S)O1 (centres unmarked) [compound 213],2,3,1000,
CCC(=O)OCC1CN(c2ccc(OCc3ccccc3)cc2)C(=O)O1 (centres unmarked) [compound 24],12.5,9,> 2000,
COC[C@H]1CN(c2ccc(OCc3cccc(C#N)c3)cc2)C(=O)O1 [compound 199],,0.31,> 1000,
COCC1CN(c2ccc(OCC3CCCCC3)cc2)C(=S)O1 (centres unmarked) [compound 114],2,3.7,> 2000,
CCOCC1CN(c2ccc(OCc3cccc([N+](=O)[O-])c3)cc2)C(=S)O1 (centres unmarked) [compound 216],3,5,1000,
COCC1CN(c2ccc(/C=C/c3cccc([N+](=O)[O-])c3)cc2)C(=O)O1 (centres unmarked) [compound 191],0.38,0.4,1000,
CC(C)NCC1CN(c2ccc(OCc3cccc([N+](=O)[O-])c3)cc2)C(=O)O1 (centres unmarked) [compound 201],6.8,7.4,> 1000,
COCC1CN(c2ccc(OCC3=CCCC3)cc2)C(=O)O1 (centres unmarked) [compound 184],0.72,1.2,> 1000,
N#CCCCCOc1ccc(N2CC(CO)OC2=S)cc1 (centres unmarked) [compound 215],10,6.2,> 1000,
COCC1CN(c2ccc(OCC=C(C)C)cc2)C(=O)O1 (centres unmarked) [compound 185],7,12,> 1000,
COCC1CN(c2ccc(OCC3CCCOC3)cc2)C(=O)O1 (centres unmarked) [compound 182],5.8,3.7,> 1000,

SMILES,ED50 [1] [mg/kg],"ED50 [2, 3] [mg/kg]",LD50 (Toxicity LD50 mouse) [mg/kg],ED50 [2] [mg/kg]
COCC1CN(c2ccc(OCC3(C)CCCC3)cc2)C(=O)O1 (centres unmarked) [compound 186],3,3,> 1000,
CCC(=O)OCC1CN(c2ccc(OCc3cccc(C#N)c3)cc2)C(=O)O1 (centres unmarked) [compound 132],2,3,> 2000,
COCC1CN(c2ccc(/C=C/c3cccc(Cl)c3)cc2)C(=O)O1 (centres unmarked) [compound 190],0.23,1,> 1000,
CC=CCOc1ccc(N2CC(COC)OC2=O)cc1 (centres unmarked) [compound 179],7,,> 1000,4.5
O=[N+]([O-])c1cccc(COc2ccc(N3CC(CO)OC3=S)cc2)c1 (centres unmarked) [compound 94],1,1.5,> 2000,
COCC1CN(c2ccc(OCc3cccc(I)c3)cc2)C(=O)O1 (centres unmarked) [compound 198],34,40,> 1000,
COCC1CN(c2ccc(OCc3cccc([N+](=O)[O-])c3)cc2)C(=S)O1 (centres unmarked) [compound 118],0.1,1,> 2000,
O=C(COc1ccccc1)OCC1CN(c2ccc(OCc3cccc([N+](=O)[O-])c3)cc2)C(=O)O1 (centres unmarked) [compound 178],28,33,> 1000,
COCC1CN(c2ccc(OCc3ccc(F)c([N+](=O)[O-])c3)cc2)C(=O)O1 (centres unmarked) [compound 169],4.1,3,> 1000,
COCC1CN(c2ccc(OCC3CCCC3)cc2)C(=O)O1 (centres unmarked) [compound 49],0.4,0.5,2000,
"COCC1CN(c2ccc(OCc3cccc([N+](=O)[O-])c3)cc2)C(=O)O1 (centres unmarked) [compound 61, para (meta-nitrobenzyloxy) phenyl-3 methoxymethyl-5 oxazolidinone-2]",0.1,0.08,1500,
O=C1CC(CO)CN1c1ccc(OCc2cccc([N+](=O)[O-])c2)cc1 (centres unmarked) [compound 99],30,50,> 2000,
COCC1CN(c2ccc(C#Cc3ccccc3)cc2)C(=O)O1 (centres unmarked) [compound 189],0.9,2.6,> 1000,
CC(=O)OCC1CN(c2ccc(OCCC#N)cc2)C(=O)O1 (centres unmarked) [compound 3],2.7,3.1,> 2000,
COCC1CN(c2ccc(OCCC#N)cc2)C(=O)O1 (centres unmarked) [compound 52],,1.2,> 2000,
"COCC1CN(c2ccc(OCc3cccc([N+](=O)[O-])c3)cc2)C(=O)S1 (centres unmarked) [compound 219, para (metanitro) benzyloxyphenyl-3 methoxymethyl-5 thiazolidinone-2]",13.5,7,> 1000,
CCNCC1CN(c2ccc(OCc3cccc([N+](=O)[O-])c3)cc2)C(=O)O1 (centres unmarked) [compound 203],1.4,5.2,1000,
CN(C)CC1CN(c2ccc(OCc3cccc(C#N)c3)cc2)C(=O)O1 (centres unmarked) [compound 206],4.3,6,> 1000,
O=C1OC(CN2CCOCC2)CN1c1ccc(OCc2cccc([N+](=O)[O-])c2)cc1 (centres unmarked) [compound 202],10,10,> 1000,

SMILES,ED50 [1] [mg/kg],"ED50 [2, 3] [mg/kg]",LD50 (Toxicity LD50 mouse) [mg/kg],ED50 [2] [mg/kg]
CCCOCC1CN(c2ccc(OCc3cccc([N+](=O)[O-])c3)cc2)C(=S)O1 (centres unmarked) [compound 210],7.4,26,> 1000,
COCC1CN(c2ccc(/C=C/c3ccccc3)cc2)C(=O)O1 (centres unmarked) [compound 187],1.3,2.7,> 1000,
CC(=O)OCC1CN(c2ccc(OCC3CCCC3)cc2)C(=O)O1 (centres unmarked) [compound 13],2,3,> 2000,
CNCC1CN(c2ccc(OCC3CCCC3)cc2)C(=O)O1 (centres unmarked) [compound 77],6.2,2.5,> 2000,
CC(C)CCOc1ccc(N2CC(CO)OC2=S)cc1 (centres unmarked) [compound 91],5.5,,> 2000,4.5
"OCC1CCN(c2ccc(OCc3ccccc3)cc2)C1 (centres unmarked) [compound 220, N-parabenzyloxyphenyl hydroxymethyl-3 pyrrolidine]",50,50,> 1000,
COCC1CN(c2ccc(OCCCCCl)cc2)C(=O)O1 (centres unmarked) [compound 234],4,0.6,> 1000,
N#Cc1cc(COc2ccc(N3CC(CO)OC3=S)cc2)ccc1F (centres unmarked) [compound 209],6.7,7,1000,
COCC1CN(c2ccc(OCC3CCC3)cc2)C(=O)O1 (centres unmarked) [compound 183],2.4,1.9,> 1000,
COCC1CN(c2ccc(OCCC(C)C)cc2)C(=S)O1 (centres unmarked) [compound 214],1.8,0.84,1000,
COCC1CN(c2ccc(OCc3cccc(Br)c3)cc2)C(=O)O1 (centres unmarked) [compound 197],6.7,2.2,> 1000,
COCC1CN(c2ccc(/C=C/c3cccc(C#N)c3)cc2)C(=O)O1 (centres unmarked) [compound 196],0.55,,> 1000,
CCC(=O)OCC1CN(c2ccc(OCc3cccc([N+](=O)[O-])c3)cc2)C(=S)O1 (centres unmarked) [compound 208],4.2,10,> 1000,
CC(=O)OCC1CN(c2ccc(OCCC(C)C)cc2)C(=O)O1 (centres unmarked) [compound 123],1.4,2,> 2000,
COCC1CN(c2ccc(OCCN3CCOCC3)cc2)C(=O)O1 (centres unmarked) [compound 181],9,4,> 1000,
N#Cc1cccc(COc2ccc(N3CC(CN)OC3=O)cc2)c1 (centres unmarked) [compound 205],3,10.1,> 1000,
COC[C@@H]1CN(c2ccc(OCc3cccc(C#N)c3)cc2)C(=O)O1 [compound 200],,1.7,> 1000,
COCC1CN(c2ccc(OCc3cc(C#N)cc([N+](=O)[O-])c3)cc2)C(=S)O1 (centres unmarked) [compound 218],13.5,7.2,> 1000,
N#CCCCOc1ccc(N2CC(CO)OC2=S)cc1 (centres unmarked) [compound 212],12,4.3,1000,
